Measurements taken from patent EP4768489A1, “CYCLOBUTYL-CONTAINING COMPOUNDS” (Chia Tai Tianqing Pharmaceutical Group Co., Ltd., priority 2023, dated 2025).
Substitutions are numbered along the chain they refer to.

Experiments:
[1] = In vitro liver microsome stability, human; assay type: in vitro ADME; settings: human liver microsomes 0.5 mg/mL, 37 °C, NADPH
Procedure: (§1) Liver microsome incubation samples were prepared by mixing a PBS buffer (pH 7.4), a liver microsome solution (0.5 mg/mL), a test compound, and an NADPH + MgCl2 solution, followed by incubation at 37 °C and 300 rpm for 1 h. Zero-hour samples were prepared by mixing a PBS buffer (pH 7.4), a liver microsome solution (0.5 mg/mL), and a test compound. […]

[2] = system: LNCaP (T878A) cells; test: cells; settings: Homo sapiens, 168 h
Procedure: LNCaP cells in a good growth state were taken, washed with PBS, and digested with pancreatin, and a phenol red-free 1640 complete medium containing 2% CSS-FBS was added to terminate the digestion. The cells were collected into a centrifuge tube, adjusted to a cell density of 1 × 10^5 cells/mL, and seeded in a 96-well plate (100 µL/well). Meanwhile, compounds were added using a nanoliter pipettor and subjected to a 2-fold gradient dilution such that the final concentrations of the compounds were 1000 nM-0.061 nM and 5000 nM-0.305 nM. 2 duplicate wells were set, and meanwhile, a control was set. After the cells were cultured in the cell incubator for another 168 h, the detection reagent CCK-8 (manufacturer: Dojindo, 10 µL/well) was added. After 2.0 h of incubation in the cell incubator, absorbance values at 450 nm were measured using a PerkinElmer Envision microplate reader, the four-parameter analysis was performed, the dose-response curves were fit, and IC50 was calculated.

[3] = system: VCaP cells; test: Assay on inhibitory activity for VCaP cell proliferation (CCK-8); assay type: cell-based; settings: Homo sapiens, 168 h
[4] = molecular target: T1, AR in LNCaP (T878A) cells (Homo sapiens, UniProt P10275, T878A); test: Assay on degradation activity for AR in LNCaP (T878A) cells (HTRF); assay type: cell-based; settings: maximum degradation rate, 24 h
T1 construct: Assay on degradation activity for AR in LNCaP (T878A) cells; endogenous in cells; host or cells: LNCaP cells
T1 sequence (P10275 1-920 T878A): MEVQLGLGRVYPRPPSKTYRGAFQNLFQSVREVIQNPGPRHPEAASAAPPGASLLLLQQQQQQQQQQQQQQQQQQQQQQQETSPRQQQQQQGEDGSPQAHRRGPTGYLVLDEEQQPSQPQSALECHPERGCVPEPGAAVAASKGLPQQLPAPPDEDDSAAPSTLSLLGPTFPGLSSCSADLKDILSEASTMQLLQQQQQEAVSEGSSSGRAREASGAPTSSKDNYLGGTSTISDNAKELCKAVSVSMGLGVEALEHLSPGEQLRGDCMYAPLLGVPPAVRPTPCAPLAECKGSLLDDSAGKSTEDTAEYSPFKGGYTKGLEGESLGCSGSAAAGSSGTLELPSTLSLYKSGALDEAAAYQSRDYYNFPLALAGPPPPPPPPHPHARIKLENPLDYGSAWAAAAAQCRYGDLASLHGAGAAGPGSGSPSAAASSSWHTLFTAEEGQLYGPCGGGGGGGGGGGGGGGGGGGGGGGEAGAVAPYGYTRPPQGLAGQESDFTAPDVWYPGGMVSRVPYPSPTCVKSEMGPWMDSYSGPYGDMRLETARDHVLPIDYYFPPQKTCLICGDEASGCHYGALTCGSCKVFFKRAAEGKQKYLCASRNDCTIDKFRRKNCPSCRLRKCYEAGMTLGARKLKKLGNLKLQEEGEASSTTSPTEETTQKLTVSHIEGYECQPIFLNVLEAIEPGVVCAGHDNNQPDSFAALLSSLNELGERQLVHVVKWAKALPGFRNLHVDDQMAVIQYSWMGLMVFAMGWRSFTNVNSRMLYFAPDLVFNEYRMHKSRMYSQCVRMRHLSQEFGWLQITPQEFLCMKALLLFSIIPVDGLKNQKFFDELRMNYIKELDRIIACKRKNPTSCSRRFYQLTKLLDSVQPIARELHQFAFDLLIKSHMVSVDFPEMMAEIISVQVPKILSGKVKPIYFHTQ
Procedure: (§2) The detection was carried out using the HTRF HUMAN ANDROGEN RECEPTOR DETECTION KIT (cisbio, 64ANDRPEG), 4× Supplemented Lysis buffer was prepared using the Blocking reagent stock solution (100×) and Lysis buffer stock solution (4×), and 1× Supplemented Lysis buffer was prepared using the 4× Supplemented Lysis buffer and ddH2O. Premixed antibody solutions were prepared using Detection buffer, Androgen Receptor Eu Cryptate antibody, and Androgen Receptor d2 antibody.
(§3) The cells were cultured overnight in a cell incubator. […] After the cells were oscillated for 40 min at room temperature, 16 µL of the cell lysis buffer was added to a 384-well plate, the Premixed antibody solutions were added at 4 µL/well, and the mixture was left to stand at 25 °C for 2 h. […] Table 2. Degradation activity of compounds for AR in LNCaP (T878A) cells

[5] = In vitro liver microsome stability, mouse; assay type: in vitro ADME; settings: mouse liver microsomes 0.5 mg/mL, 37 °C, NADPH
Procedure: as §1

[6] = in vivo; settings: mouse
Procedure: (§4) ICR mice weighing 18-22 g were randomized into groups of 9 after 3-5 days of acclimatization. The mice in the intragastric administration group were intragastrically given the test compound solution at a dose of 10 mg/kg (20 mg/kg or 30 mg/kg), and the mice in the intravenous injection administration group were intravenously injected with the test compound solution at a dose of 1 mg/kg.
(§5) Blood was collected from the orbit to prepare plasma samples to be tested.
(§6) 30 µL of each of the plasma samples to be tested and a standard curve sample were taken, and an acetonitrile solution containing an internal standard was added. Supernatants were obtained by protein precipitation, diluted with a 1:1 (v:v) mixed solution of acetonitrile and water, and then assayed by LC/MS/MS. Data were fitted using a non-compartmental model.

[7] = Mouse pharmacokinetics; settings: for F: Mouse i.g. (0-48 h), 10 mpk vs i.v. 1 mpk
Procedure: as §4, §5, §6

[8] = molecular target: T2, AR in MDA-PCA-2B (L702H\T878A) cells (Homo sapiens, UniProt P10275, L702H/T878A); test: Assay on degradation activity for AR in MDA-PCA-2B (L702H\T878A) cells (HTRF); assay type: cell-based; settings: 24 h; for DC50: AR degradation; for Dmax: maximum degradation rate
T2 construct: Assay on degradation activity for AR in MDA-PCA-2B (L702H\T878A) cells; endogenous in cells; host or cells: MDA-PCA-2B cells
T2 sequence (P10275 1-920 L702H/T878A): T1 sequence (P10275 1-920 T878A) with L702H
Procedure: as §2
The cells were cultured overnight in a cell incubator. […] After the cells were oscillated for 40 min at room temperature, 16 µL of the cell lysis buffer was added to a 384-well plate, the Premixed antibody solutions were added at 4 µL/well, and the mixture was left to stand at 25 °C for 2 h. […]

[9] = molecular target: T3, AR in VCaP cells (Homo sapiens, UniProt P10275); test: Assay on degradation activity for AR in VCaP cells (HTRF human androgen receptor detection kit); assay type: cell-based; settings: 24 h; for DC50: AR degradation; for Dmax: maximum degradation rate
T3 construct: Assay on degradation activity for AR in VCaP cells; endogenous in cells; host or cells: VCaP cells
T3 sequence (P10275 1-920): T1 sequence (P10275 1-920 T878A) with A878T
Procedure: as §2
as §3, with “1.” for “2.”, “VCaP” for “LNCaP (T878A)”

[10] = ICR, mouse, plasma, iv, 1 mg/kg
[11] = ICR, mouse, plasma, po, 10 mg/kg

SMILES | HLM (human) Remaining amount at 60 min % [1] [%] | IC50 [3] [nM] | MLM (mouse) Remaining amount at 60 min % [5] [%] | F [7] [%] | DC50 [8] [nM] | Dmax [8] [%] | DC50 [9] [nM] | Dmax [9] [%] | also measured
COc1cc(O[C@H]2C(C)(C)[C@H](NC(=O)c3ccc(N4CCC(CN5CCc6c(ccc7c(C8CCC(=O)NC8=O)noc67)C5)CC4)cn3)C2(C)C)ccc1C#N (stereo partly shown) [Compound 2] | >70 | < 2000 | >70 |  |  |  |  |  | IC50 [2]: < 50 nM; Dmax [4]: > 90%
COc1cc(O[C@H]2C(C)(C)[C@H](NC(=O)c3ccc(N4CCC(CN5Cc6ccc7c(C8CCC(=O)NC8=O)noc7c6C5)CC4)cc3)C2(C)C)ccc1C#N (stereo partly shown) [Compound 8] | >70 |  | >70 | 37.00 | < 500 | > 70 | < 5 | > 75 | AUC at 48 h ([6]; iv, 1 mg/kg): 20200 ng·h/mL; Vd ([6]; iv, 1 mg/kg): 1.1 L/kg; clearance ([6]; iv, 1 mg/kg): 0.7 mL/min/kg; half-life ([6]; iv, 1 mg/kg): 1080 min; AUC at 48 h ([6]; po, 10 mg/kg): 77600 ng·h/mL; Cmax ([6]; po, 10 mg/kg): 2810 ng/mL; half-life ([6]; po, 10 mg/kg): 900 min
COc1cc(O[C@H]2C(C)(C)[C@H](NC(=O)c3ccc(N4CCC(CN5CCc6ccc7c(C8CCC(=O)NC8=O)noc7c6C5)CC4)cc3)C2(C)C)ccc1C#N (stereo partly shown) [Compound 9] | >70 |  |  |  | < 500 | > 70 |  |  | 
COc1cc(O[C@H]2C(C)(C)[C@H](NC(=O)c3ccc(N4CCC(CN5CCc6ccc7c(C8CCC(=O)NC8=O)noc7c6CC5)CC4)cc3)C2(C)C)ccc1C#N (stereo partly shown) [Compound 10] | >70 | < 2000 | >70 | 30.00 | < 500 | > 70 | < 5 | > 75 | AUC at 48 h ([6]; iv, 1 mg/kg): 5400 ng·h/mL; Vd ([6]; iv, 1 mg/kg): 3.1 L/kg; clearance ([6]; iv, 1 mg/kg): 2.83 mL/min/kg; half-life ([6]; iv, 1 mg/kg): 780 min; AUC at 48 h ([6]; po, 10 mg/kg): 16200 ng·h/mL; Cmax ([6]; po, 10 mg/kg): 620 ng/mL; half-life ([6]; po, 10 mg/kg): 660 min
COc1cc(O[C@H]2C(C)(C)[C@H](NC(=O)c3ccc(N4CCC(CN5Cc6ccc7c(C8CCC(=O)NC8=O)noc7c6C5)CC4)nc3)C2(C)C)ccc1C#N (stereo partly shown) [Compound 11] | >70 | < 2000 | >70 |  | < 500 | > 70 | < 5 | > 75 | 
COc1cc(O[C@H]2C(C)(C)[C@H](NC(=O)c3ccc(N4CCC(CN5CCc6ccc7c(C8CCC(=O)NC8=O)noc7c6C5)CC4)nc3)C2(C)C)ccc1C#N (stereo partly shown) [Compound 12] | >70 |  |  |  | < 500 | > 70 |  |  | 
COc1cc(O[C@H]2C(C)(C)[C@H](NC(=O)c3ccc(N4CCC(CN5CCc6ccc7c(C8CCC(=O)NC8=O)noc7c6CC5)CC4)nc3)C2(C)C)ccc1C#N (stereo partly shown) [Compound 13] |  | < 2000 | >70 | 41.00 | < 500 | > 70 | < 5 | > 75 | AUC [7, 10]: 6810 ng·h/mL; Vd [7, 10]: 2 L/kg; clearance [7, 10]: 2.33 mL/min/kg; half-life [7, 10]: 582 min; AUC [7, 11]: 28000 ng·h/mL; Cmax [7, 11]: 1390 ng/mL; half-life [7, 11]: 498 min
